Bounds are passed on as bounds.

The subject of assay [1] is diamondback moth (コナガ) 2nd instar larvae. In words: Test Example 1: efficacy test against diamondback moth (コナガ), cabbage leaf dip. In kind it is in vivo. To be noted: Plutella xylostella, foliar, 72 h, cabbage leaf dipped 30 s, 25 °C, 60% humidity, 3 days after release, 2 replicates, read-out: insecticidal rate.
The test system of assay [2] is striped flea beetle (キスジノミハムシ) adults. The assay can be described thus: Test Example 2: efficacy test against striped flea beetle (キスジノミハムシ), spray on bok choy seedlings. In kind it is in vivo. To be noted: Phyllotreta striolata, 168 h, sprayed on bok choy seedlings, 25 °C, 65% humidity, 7 days after release, 2 replicates, read-out: insecticidal rate.

`CCS(=O)(=O)c1cc(/C=N/OCC(F)(F)F)cnc1-c1ncc(C=C(Cl)C(F)(F)F)n1C` [化合物番号1, (E)-6-(5-(2-chloro-3,3,3-trifluoroprop-1-en-1-yl)-1-methyl-1H-imidazol-2-yl)-5-(ethylsulfonyl)nicotinaldehyde O-(2,2,2-trifluoroethyl) oxime]: the mortality at 125 ppm in assay [1] and in assay [2] was at least 80% in each case.

For the origin of these results see JP2019019068A, “アリールアゾール化合物および有害生物防除剤” (Nippon Soda Co Ltd, priority 2017, dated 2019).
